Results: paper PMC10892041, “Vanadium Complexes with Thioanilide Derivatives of Amino Acids: Inhibition of Human Phosphatases and Specificity in Various Cell Models of Metabolic Disturbances” (Pharmaceuticals, 2024)

What was measured:
PP2A = PP2A (Homo sapiens, UniProt P67775); assay: Inhibition of human recombinant non-tyrosine phosphatase PP2A (DiFMUP); type: biochemical
Method in brief: (§1)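 Compound pre-incubated 10 min with enzyme: PP2A at 0.5 U/mL in 50 mM Tris-HCl pH 7.0, 0.05% Tween-20, 125 µg/mL BSA with 0.1 mM DiFMUP; CDC25A at 400 ng/mL with 0.2 mM 3-O-methylfluorescein phosphate. Incubation 180 min at 23 °C; fluorescence (ex 355/em 560 nm) read, percent inhibition versus vehicle control, triplicate.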

hepatocytes HepG2 = assay: Lipid accumulation in the cell model of NAFLD (oleic acid, AdipoRed); type: cell-based, human; details: 10 µM; 24 h
Method: The human hepatocyte HepG2 cell line (ATCC HB-8065) was cultured according to standard protocol in DMEM supplemented with 10% fetal bovine serum, 100 IU/mL penicillin, and […] streptomycin at 37 °C in 5% CO2. Cells were pleated on a 96-well microplate and were used at 18–24 h after seeding.
The induction of hepatic lipid accumulation and studies on the effect of vanadium complexes on this process were carried out based on previous descriptions. […] After 16–24 h, the standard medium was changed for DMEM with 0.1% BSA fatty acid free and 0.5 mM oleic acid as sodium salt and tested compounds were added. Cells were incubated for 24 h, and the intracellular lipid content was evaluated using AdipoRed Adipogenesis Assay Reagent (Lonza) according to the manufacturer’s protocol. Hepatocytes were washed with PBS with calcium and magnesium, and 5 µL AdipoRed Reagent in 200 µL PBS was added, with the mixture incubated for 10 min at 22 °C. Fluorescence signal proportional to lipid content in cells was measured at excitation in 530 nm and emission in 550 nm using a multimodal microplate reader POLARStar Omega (BMG Labtech). The results were normalized to the untreated control (cells with solvent only), wherein the intensity of fluorescence was taken as 100%.

SHP1 = molecular target: T1, SHP1 (Homo sapiens, UniProt P29350); assay: Inhibition of human recombinant tyrosine phosphatase SHP1 (DiFMUP fluorescence); type: biochemical; details: for Inhibition of SHP1, percentage of inhibition of the control: 1 µM, control solvent only, SD did not exceed 6%; for Log IC50 ± SD SHP1: logarithm of IC50
T1 construct: purchased Sigma-Aldrich
T1 sequence (P29350 whole entry): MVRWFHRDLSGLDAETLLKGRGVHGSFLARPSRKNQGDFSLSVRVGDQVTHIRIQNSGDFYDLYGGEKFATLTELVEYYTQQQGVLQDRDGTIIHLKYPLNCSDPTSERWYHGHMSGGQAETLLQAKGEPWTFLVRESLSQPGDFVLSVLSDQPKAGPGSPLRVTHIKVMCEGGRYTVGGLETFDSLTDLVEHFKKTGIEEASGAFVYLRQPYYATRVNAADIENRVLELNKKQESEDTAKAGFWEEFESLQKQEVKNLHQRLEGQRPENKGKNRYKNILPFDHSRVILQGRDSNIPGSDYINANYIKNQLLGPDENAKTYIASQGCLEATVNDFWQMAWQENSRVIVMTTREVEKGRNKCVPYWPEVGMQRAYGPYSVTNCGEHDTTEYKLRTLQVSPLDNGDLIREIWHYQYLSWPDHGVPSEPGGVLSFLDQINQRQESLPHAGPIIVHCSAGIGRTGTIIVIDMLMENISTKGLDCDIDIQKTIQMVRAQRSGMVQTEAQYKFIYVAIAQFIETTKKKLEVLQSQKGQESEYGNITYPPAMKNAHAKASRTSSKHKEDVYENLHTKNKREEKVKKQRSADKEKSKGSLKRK
Method in brief: (§2)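 Human recombinant phosphatases (SHP1 400 ng/mL, SHP2 50 ng/mL, LAR 5 ng/mL final) were pre-incubated 10 min with compound in 25 mM MOPS pH 7.0, 50 mM NaCl, 1 mM DTT, 0.05% Tween-20. DiFMUP (0.1 mM final) was added for 20 min at 23 °C and fluorescence read at 355/560 nm. Screening used 1 µM compound (% inhibition vs vehicle); IC50 also reported.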

LAR = molecular target: T2, LAR (Homo sapiens, UniProt P10586); assay: Inhibition of human recombinant tyrosine phosphatase LAR (DiFMUP fluorescence); type: biochemical; details: for Inhibition of LAR, percentage of inhibition of the control: 1 µM, control solvent only, SD did not exceed 6%
T2 sequence (P10586 1352-1607 limits assumed): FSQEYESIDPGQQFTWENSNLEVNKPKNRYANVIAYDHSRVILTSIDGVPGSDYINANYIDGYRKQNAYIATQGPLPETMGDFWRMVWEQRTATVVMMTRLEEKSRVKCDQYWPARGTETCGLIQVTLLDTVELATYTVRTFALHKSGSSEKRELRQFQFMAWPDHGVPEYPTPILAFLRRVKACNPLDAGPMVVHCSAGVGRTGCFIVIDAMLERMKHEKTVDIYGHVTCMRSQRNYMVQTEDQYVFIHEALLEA
Method in brief: as §2

CDC25A = molecular target: T3, CDC25A (Homo sapiens, UniProt P30304); assay: Inhibition of human recombinant non-tyrosine phosphatase CDC25A (3-O-methylfluorescein phosphate); type: biochemical
T3 construct: purchased Sigma-Aldrich
T3 sequence (P30304 1-524): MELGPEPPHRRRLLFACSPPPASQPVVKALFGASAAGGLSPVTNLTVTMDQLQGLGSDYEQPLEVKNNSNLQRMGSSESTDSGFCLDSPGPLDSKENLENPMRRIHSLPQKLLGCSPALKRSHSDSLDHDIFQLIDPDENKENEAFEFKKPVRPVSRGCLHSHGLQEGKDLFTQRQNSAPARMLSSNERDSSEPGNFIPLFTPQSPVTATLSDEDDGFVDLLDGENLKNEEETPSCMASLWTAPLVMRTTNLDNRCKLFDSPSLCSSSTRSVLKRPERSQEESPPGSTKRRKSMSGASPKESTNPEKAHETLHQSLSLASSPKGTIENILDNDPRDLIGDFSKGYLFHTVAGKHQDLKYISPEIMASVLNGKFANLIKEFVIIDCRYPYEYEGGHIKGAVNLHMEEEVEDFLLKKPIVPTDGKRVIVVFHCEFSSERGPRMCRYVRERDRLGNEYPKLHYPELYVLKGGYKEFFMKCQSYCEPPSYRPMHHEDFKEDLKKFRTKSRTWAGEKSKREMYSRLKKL
Method in brief: as §1

Sequence of PP2A (P67775 whole entry): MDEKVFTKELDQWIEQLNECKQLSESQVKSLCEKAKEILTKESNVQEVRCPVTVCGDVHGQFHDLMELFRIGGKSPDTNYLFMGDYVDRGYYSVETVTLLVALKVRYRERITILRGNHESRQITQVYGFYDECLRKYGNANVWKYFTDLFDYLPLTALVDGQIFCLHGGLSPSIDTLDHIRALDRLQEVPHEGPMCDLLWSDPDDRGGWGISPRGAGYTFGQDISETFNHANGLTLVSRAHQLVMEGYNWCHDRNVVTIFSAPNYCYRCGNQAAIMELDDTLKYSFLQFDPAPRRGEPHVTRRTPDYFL

| SMILES | Inhibition of PP2A, percentage inhibition of control ± SD (PP2A; 1 µM) [%] | Inhibition of PP2A, percentage inhibition of control ± SD (PP2A; 10 µM) [%] | Lipid accumulation in hepatocytes after steatosis induction with oleic acid, % of control (hepatocytes HepG2) | IC50 (SHP1) [nM] | Inhibition of SHP1, percentage of inhibition of the control (SHP1) [%] | Log IC50 ± SD SHP1 (SHP1) | IC50 (LAR) [nM] | Inhibition of LAR, percentage of inhibition of the control (LAR) [%] | Inhibition of CDC25A, percentage inhibition of control ± SD (CDC25A; 1 µM) [%] | Inhibition of CDC25A, percentage inhibition of control ± SD (CDC25A; 10 µM) [%] |
| --- | --- | --- | --- | --- | --- | --- | --- | --- | --- | --- |
| O=S(=O)([O-])[O-].[O]=[V+2] [VOSO4, reference compound] | 32 ± 2 | 40 ± 3 | did not have any significant effect | 17 | 70 | −7.77 ± 0.02 | 95 | 44 | 54 ± 2 | 62 ± 1 |
| Cc1occc(=O)c1[O-].Cc1occc(=O)c1[O-].[O]=[V+2] [BMOV, bis(maltolato)oxidovanadium(IV), reference compound] | 52 ± 15 | 63 ± 4 | did not have any significant effect | 14 | 76 | −7.86 ± 0.03 | 140 | 58 | 54 ± 1 | 61 ± 1 |
